These results are taken from patent US7326288B2, “Trisazo compound, ink composition, and colored object” (Nippon Kayaku Kabushiki Kaisha, priority 2003, dated 2008).

SMILES strings stand for the structures.

One data set can be described thus: solubility in water of the isolated trisazo compound.
Settings: not given
It counts as physicochemical.
By solubility is commonly meant the concentration that dissolves in the medium under given conditions. The low end stands for a poorly soluble substance, the high end for a readily soluble substance. As for `Nc1c(N=Nc2ccc3c(O)c(N=Nc4cc(C(=O)O)cc(C(=O)O)c4)c(S(=O)(=O)O)cc3c2S(=O)(=O)O)cc(S(=O)(=O)O)c2cc(S(=O)(=O)O)c(N=Nc3ccc(S(=O)(=O)O)cc3[N+](=O)[O-])c(O)c12` [compound 26], the solubility was not below 100 mg/mL.
Still for that read-out and setting: the value for `Nc1c(N=Nc2ccc3c(O)c(N=Nc4cc(S(=O)(=O)O)c5cc([N+](=O)[O-])cc(S(=O)(=O)O)c5c4)c(S(=O)(=O)O)cc3c2S(=O)(=O)O)cc(S(=O)(=O)O)c2cc(S(=O)(=O)O)c(N=Nc3ccc([N+](=O)[O-])cc3S(=O)(=O)O)c(O)c12` [compound 20] was not below 100 mg/mL.
Same read-out and setting: the value for `Nc1c(N=Nc2ccc3c(O)c(N=Nc4cc(C(=O)O)ccc4C(=O)O)c(S(=O)(=O)O)cc3c2S(=O)(=O)O)cc(S(=O)(=O)O)c2cc(S(=O)(=O)O)c(N=Nc3ccc([N+](=O)[O-])cc3S(=O)(=O)O)c(O)c12` [compound 3] was not below 100 mg/mL.
In turn, `Nc1c(N=Nc2ccc3c(O)c(N=Nc4ccc(S(=O)(=O)O)cc4C(=O)O)c(S(=O)(=O)O)cc3c2S(=O)(=O)O)cc(S(=O)(=O)O)c2cc(S(=O)(=O)O)c(N=Nc3ccc([N+](=O)[O-])cc3S(=O)(=O)O)c(O)c12` [compound 2] gave a solubility not below 100 mg/mL.
The same measure, in the same setting: the value for `Nc1c(N=Nc2ccc3c(O)c(N=Nc4ccc([N+](=O)[O-])cc4S(=O)(=O)O)c(S(=O)(=O)O)cc3c2S(=O)(=O)O)cc(S(=O)(=O)O)c2cc(S(=O)(=O)O)c(N=Nc3ccc([N+](=O)[O-])cc3S(=O)(=O)O)c(O)c12` [compound 5] was not below 100 mg/mL; that for `COc1ccc(N=Nc2c(S(=O)(=O)O)cc3c(S(=O)(=O)O)c(N=Nc4cc(S(=O)(=O)O)c5cc(S(=O)(=O)O)c(N=Nc6ccc([N+](=O)[O-])cc6S(=O)(=O)O)c(O)c5c4N)ccc3c2O)c(S(=O)(=O)O)c1` [compound 1] was not below 100 mg/mL; that for `CNS(=O)(=O)c1ccc(N=Nc2c(S(=O)(=O)O)cc3c(S(=O)(=O)O)c(N=Nc4cc(S(=O)(=O)O)c5cc(S(=O)(=O)O)c(N=Nc6ccc([N+](=O)[O-])cc6S(=O)(=O)O)c(O)c5c4N)ccc3c2O)c(C(=O)O)c1` [compound 9] was not below 100 mg/mL.
In turn, `Nc1c(N=Nc2ccc3c(O)c(N=Nc4cc(C(=O)O)cc(C(=O)O)c4)c(S(=O)(=O)O)cc3c2S(=O)(=O)O)cc(S(=O)(=O)O)c2cc(S(=O)(=O)O)c(N=Nc3ccc([N+](=O)[O-])cc3S(=O)(=O)O)c(O)c12` [compound 24] registered a solubility not below 100 mg/mL.
Still for that read-out and setting: the figure for `Nc1c(N=Nc2ccc3c(O)c(N=Nc4ccc(S(N)(=O)=O)cc4C(=O)O)c(S(=O)(=O)O)cc3c2S(=O)(=O)O)cc(S(=O)(=O)O)c2cc(S(=O)(=O)O)c(N=Nc3ccc([N+](=O)[O-])cc3S(=O)(=O)O)c(O)c12` [compound 4] is not below 100 mg/mL.

The nature of another data set: Solubility Test (ammonia alkalinity, spot on filter paper). It counts as physicochemical. As to conditions: aqueous buffer, thermodynamic from solid. On the procedure:
Using ion exchanged water for a water, pH was adjusted at 9 to 9.5 with aqueous ammonia. They were treated with ultrasonic vessel at ordinary temperature. Toyo Filter Paper No. 131 was spotted with them, surface of which after dried was observed and solubility of which was determined. When a spot was uniform and insoluble material were not observed, it was judged to be soluble. When a spot was ununiform and insoluble material were observed, it was judged to be not soluble.
Turning to `Nc1c(N=Nc2ccc3c(O)c(N=Nc4cc(S(=O)(=O)O)ccc4S(=O)(=O)O)c(S(=O)(=O)O)cc3c2S(=O)(=O)O)cc(S(=O)(=O)O)c2cc(S(=O)(=O)O)c(N=Nc3ccc([N+](=O)[O-])cc3S(=O)(=O)O)c(O)c12` [Formula (2-10)], the solubility was not below 120 mg/mL.
